Measured values from patent US8486946B2, “Pyrazolo [4,3-c] cinnolin-3-one M1 receptor positive allosteric modulators” (Merck Sharp & Dohme Corp., priority 2009, dated 2013).

Biological target: T1, acetylcholine muscarinic M1 receptor (Homo sapiens, UniProt P11229)
T1 construct: expressed in transfected cells; host or cells: CHOnfat (CHO cells; also called CHOK1/hM1)
T1 sequence (P11229 1-460): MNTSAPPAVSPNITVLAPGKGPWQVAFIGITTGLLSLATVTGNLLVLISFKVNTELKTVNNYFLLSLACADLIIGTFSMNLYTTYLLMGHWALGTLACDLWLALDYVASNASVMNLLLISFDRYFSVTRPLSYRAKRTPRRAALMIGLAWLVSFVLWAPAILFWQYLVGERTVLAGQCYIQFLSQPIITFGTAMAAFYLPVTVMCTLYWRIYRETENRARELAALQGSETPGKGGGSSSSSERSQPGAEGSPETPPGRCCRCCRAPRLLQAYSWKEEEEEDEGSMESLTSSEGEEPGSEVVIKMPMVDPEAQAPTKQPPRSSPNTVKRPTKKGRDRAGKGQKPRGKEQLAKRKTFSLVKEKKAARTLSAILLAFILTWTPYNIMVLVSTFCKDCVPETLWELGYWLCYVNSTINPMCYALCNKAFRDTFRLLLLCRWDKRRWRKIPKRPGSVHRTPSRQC
Assay: Muscarinic FLIPR intracellular calcium assay for M1 positive allosteric modulator activity in CHOnfat/hM1 cells
Type: cell-based
Settings: 4 min preincubation, then EC20 acetylcholine (3 nM final), calculated from FLIPR values, read-out: IP Value (inflection point)
Experimental: The assay studies the effect of one or several concentrations of test compounds on basal or acetylcholine-stimulated Ca^2+ levels using FLIPR.
Compounds are prepared and subjected to a preincubation period of 4 min. Thereafter, a single EC20 concentration of acetylcholine is added to each well (3 nM final). The intracellular Ca^2+ level of each sample is measured and compared to an acetylcholine control to determine any modulatory activity.
Cells: CHOnfat/hM1, hM2, hM3 or hM4 cells are plated 24 hr before the assay at a density of 18,000 cells/well (100 μL) in a 384 well plate. CHOnfat/hM1 and CHOnfat/hM3 Growth Medium: 90% DMEM (Hi Glucose); 10% HI FBS; 2 mM L-glutamine; 0.1 mM NEAA; Pen-Strep; and 1 mg/ml Geneticin, are added. For M2Gqi5CHOnfat and M4Gqi5CHOnfat cells, an additional 600 ug/ml hygromycin is added.
Equipment: 384 well plate, 120 μL addition plate; 96-well Whatman 2 ml Uniplate Incubator, 37° C., 5% CO2; Skatron EMBLA-384 Plate Washer; Multimek Pipetting System; Genesis Freedom 200 System; Mosquito System; Temo Nanoliter Pipetting System; and FLIPR^384 Fluorometric Imaging Plate Reader System are used.
Buffers. Assay Buffer: Hanks Balanced Salt Solution, with 20 mM Hepes, 2.5 mM Probenecid (Sigma P-8761) first dissolved in 1 N NaOH, 1% Bovine Serum Albumin (Sigma A-9647). Dye Loading Buffer: Assay Buffer plus 1% Fetal Bovine Serum and Fluo-4AM/Pluronic Acid Mixture. 2 mM Fluo-4AM ester stock in DMSO (Molecular Probes F-14202) Concentration of 2 μM in buffer for a final concentration of 1 μM in Assay. 20% Pluronic Acid Solution stock, with concentration of 0.04% in Buffer, 0.02% in Assay.
65 μL of 2 mM Fluo-4AM are mixed with 130 μL of 20% Pluronic Acid. The resulting solution and 650 μL FBS is added to the assay buffer for a total volume of 65 mL. Positive Controls: 4-Br-A23187: 10 mM in DMSO; final concentration 10 μM. Acetylcholine: 10 mM in water, working stock at both 20 μM and 30 μM in assay buffer, final concentration of 10 μM. This is used to check the maximum stimulation of the CHOK1/hM1 cells. 20 μM (2×) acetylcholine is added in the preincubation part of the assay, and the 30 μM (3×) stock is added in the second part. (EC20)Acetylcholine: 10 mM in water, working stock of 9 nM (3×), and final concentration in assay is 3 nM. This is used after the preincubation with test compounds. Addition of the EC20 Acetylcholine to each well with a test compound will ascertain any modulator activity. 24 wells contain 3 nM Acetylcholine alone as a control.
Determining Activity of Putative Compounds:
Screening Plate Compounds are titrated in 96-well plates (columns 2-11), 100% DMSO, started at a concentration of 15 mM (150× stock concentration), and 3-fold serial dilutions using Genesis Freedom200 System. Four 96-well plates are combined into a 384-well plate using Mosquito Nanoliter Pipetting System by transferring 1 μl of serial diluted compounds to each well, and 1 mM acetylcholine (100× stock concentration) were added as a control. Using Temo, 49 μl assay buffer is added to each well of the 384-well plate right before assay.
In a 96-well Whatman 2 ml Uniplate, 9 nM Acetylcholine (3×) is pipetted into wells corresponding to the screening compounds, and into control wells. The 30 μM acetylcholine control (3×) is added into control wells, and the 3× agonist plate is transferred into a 384 well plate.
Cells are washed three times with 100 μL of buffer, leaving 30 μL of buffer in each well. Using Multimek, 30 μL of Dye Loading Buffer is added into each well and incubated at 37° C., 5% CO2 for up to one hr.
After 60 min, the cells are washed three times with 100 μL of buffer, leaving 30 μL of buffer in each well. The cell plate, screening plate, and agonist addition plates are placed on the platform in the FLIPR and the door closed. A signal test to check background fluorescence and basal fluorescence signal is performed. Laser intensity is adjusted if necessary. […]

Row | SMILES | EC50
1 | CC1CCOCC1n1nc2c3ccccc3n(Cc3ccc(-n4cccn4)cc3)nc-2c1=O (racemic) [Example 71, (±)-2-[cis,trans-4-methyltetrahydro-2H-pyran-3-yl]-5-[4-(1H-pyrazol-1-yl)benzyl]-2,5-dihydro-3H-pyrazolo[4,3-c]cinnolin-3-one] | 89 nM
2 | O=c1c2nn(Cc3ccc(-n4cccn4)cc3)c3c(Cl)cccc3c-2nn1[C@H]1CCOC[C@@H]1O (single isomer, unassigned) [Example 62, 6-Chloro-2-(trans-3-hydroxytetrahydro-2H-pyran-4-yl)-5-[4-(1H-pyrazol-1-yl)benzyl]-2,5-dihydro-3H-pyrazolo[4,3-c]cinnolin-3-one] | 21 nM
3 | O=c1c2nn(Cc3ccc(-n4cccn4)cc3)c3c(Cl)cccc3c-2nn1[C@H]1CCOC[C@@H]1O (single isomer, unassigned) [Example 63, 6-Chloro-2-(trans-3-hydroxytetrahydro-2H-pyran-4-yl)-5-[4-(1H-pyrazol-1-yl)benzyl]-2,5-dihydro-3H-pyrazolo[4,3-c]cinnolin-3-one] | 593 nM
4 | C[C@H]1CCOC[C@@H]1n1nc2c3ccccc3n(Cc3ccc(-n4cccn4)cc3)nc-2c1=O (single isomer, unassigned) [Example 72, trans-2-[4-Methyltetrahydro-2H-pyran-3-yl]-5-[4-(1H-pyrazol-1-yl)benzyl]-2,5-dihydro-3H-pyrazolo[4,3-c]cinnoline-3-one] | 47 nM
5 | C[C@@H]1CCOC[C@@H]1n1nc2c3ccccc3n(Cc3ccc(-n4cccn4)cc3)nc-2c1=O (single isomer, unassigned) [Example 73, cis-2-[4-Methyltetrahydro-2,1-pyran-3-yl]-5-[4-(1H-pyrazol-1-yl)benzyl]-2,5-dihydro-3H-pyrazolo[4,3-c]cinnoline-3-one] | 771 nM
6 | C[C@H]1CCOC[C@@H]1n1nc2c3ccccc3n(Cc3ccc(-n4cccn4)cc3)nc-2c1=O (single isomer, unassigned) [Example 74] | 636 nM
7 | C[C@@H]1CCOC[C@@H]1n1nc2c3ccccc3n(Cc3ccc(-n4cccn4)cc3)nc-2c1=O (single isomer, unassigned) [Example 75, cis-2-[4-Methyltetrahydro-2H-pyran-3-yl]-5-[4-(1H-pyrazol-1-yl)benzyl]-2,5-dihydro-3H-pyrazolo[4,3-c]cinnoline-3-one] | 158 nM
8 | O=c1c2nn(Cc3ccc(-n4cccn4)cc3)c3ccccc3c-2nn1-c1ccccc1F [Example 1, 2-(2-Fluorophenyl)-5-{[4-(1H-pyrazol-1-yl)phenyl]methyl}-2,5-dihydro-3H-pyrazolo[4,3-c]cinnolin-3-one] | 28 nM
9 | O=c1c2nn(Cc3ccc(-n4cccn4)cc3)c3ccccc3c-2nn1CC(O)CO (centres unmarked) [Example 11, 2-(2,3-Dihydroxypropyl)-5-[4-(1H-pyrazol-1-yl)benzyl]-2,5-dihydro-3H-pyrazolo[4,3-c]cinnolin-3-one] | 193 nM
10 | N#Cc1cccc(F)c1-n1nc2c3ccccc3n(Cc3ccc(-n4cccn4)cc3)nc-2c1=O [Example 13, 3-Fluoro-2-(3-oxo-5-{[4-(1H-pyrazol-1-yl)phenyl]methyl}-3,5-dihydro-2H-pyrazolo[4,3-c]cinnolin-2-yl)benzonitrile] | 14 nM
11 | Cc1ccccc1-n1nc2c3ccccc3n(Cc3ccc(Br)cn3)nc-2c1=O [Example 21, 5-[(5-Bromopyridin-2-yl)methyl]-2-(2-methylphenyl)-2,5-dihydro-3H-pyrazolo[4,3-c]cinnolin-3-one] | 2860 nM
12 | Cc1ccccc1-n1nc2c3ccccc3n(Cc3ccc(-n4ccnc4)nc3)nc-2c1=O [Example 23, 5-{[6-(1H-Imidazol-1-yl)pyridine-3-yl]methyl}-2-(2-methylphenyl)-2,5-dihydro-3H-pyrazolo[4,3-c]cinnolin-3-one] | 748 nM
13 | Cc1ccccc1-n1nc2c3ccccc3n(Cc3ccc(-c4cnn(C)c4)nc3)nc-2c1=O [Example 25, 2-(2-Methylphenyl)-5-{[6-(1-methyl-1H-pyrazol-4-yl)pyridine-3-yl]methyl}-2,5-dihydro-3H-pyrazolo[4,3-c]cinnolin-3-one] | 144 nM
14 | O=c1c2nn(Cc3ccc(-n4cccn4)cc3)c3c(Cl)cccc3c-2nn1[C@@H]1CCCC[C@H]1O [Example 61] | 42 nM
15 | Cc1ccccc1-n1nc2c3ccccc3n(Cc3ccc(N4CCOCC4)nc3)nc-2c1=O [Example 81, 2-(2-Methylphenyl)-5-{[6-(morpholin-4-yl)pyridine-3-yl]methyl}-2,5-dihydro-3H-pyrazolo[4,3-c]cinnolin-3-one] | 1370 nM
16 | Cc1nc(F)ccc1-n1nc2c3ccccc3n(Cc3ccc(-c4cnn(C)c4)nc3)nc-2c1=O [Example 86, 2-(6-Fluoro-2-methylpyridin-3-yl)-5-{[6-(1-methyl-1H-pyrazol-4-yl)pyridin-3-yl]methyl}-2,5-dihydro-3H-pyrazolo[4,3-c]cinnolin-3-one] | 225 nM
17 | Cc1ccc(-c2ccc(Cn3nc4c(=O)n(-c5cccc(C)c5C)nc-4c4ccccc43)cn2)cn1 [Example 90, 2-(2,3-Dimethylphenyl)-5-[(6′-methyl-2,3′-bipyridin-5-yl)methyl]-2,5-dihydro-3H-pyrazolo[4,3-c]cinnolin-3-one] | 29 nM
